For 4 compounds, IC50 results are on record in article doi:10.1101/2021.07.14.452003v1 (biorxiv, 2021).

Molecules are shown by their SMILES.

Sequence of M. tuberculosis RnhC (Mt RnhC; Rv2228c; M. tuberculosis RNase HI) (P9WLH5 whole entry): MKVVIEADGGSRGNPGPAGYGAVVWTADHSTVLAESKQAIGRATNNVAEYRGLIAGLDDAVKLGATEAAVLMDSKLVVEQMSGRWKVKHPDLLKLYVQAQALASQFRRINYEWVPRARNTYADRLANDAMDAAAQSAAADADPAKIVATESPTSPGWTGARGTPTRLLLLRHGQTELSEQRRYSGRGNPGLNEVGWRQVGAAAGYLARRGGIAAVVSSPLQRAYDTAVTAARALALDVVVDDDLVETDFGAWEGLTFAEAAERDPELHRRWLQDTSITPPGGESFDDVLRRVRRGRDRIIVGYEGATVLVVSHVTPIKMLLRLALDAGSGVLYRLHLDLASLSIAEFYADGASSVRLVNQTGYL

The test addresses M. tuberculosis RnhC (Mt RnhC; Rv2228c; M. tuberculosis RNase HI) (Mycobacterium tuberculosis, UniProt P9WLH5). The test can be described thus: biochemical.
Regarding `CC(C)c1ccc(O)c(=O)c(O)c1` [NSC18806], inhibition was half-maximal at 32 µM (IC50).

In the case of `O=S(=O)(N/N=C/c1c(O)ccc2ccccc12)c1cc(Cl)c(Cl)cc1Cl` [NSC99726], the IC50 (commonly the concentration needed to halve the response being measured) amounted to 45 µM. With `Oc1ccc(-c2csc(Nc3ccccn3)n2)cc1O` [NSC353720], inhibition was half-maximal at 12 µM (IC50). As for `COc1ccc(C2COc3cc(O)c(O)cc3C2)cc1` (stereo not shown) [NSC600285], the figure is 17 µM.
